Assay [1] is described as follows: T. cruzi intracellular amastigote growth inhibition, dose response, imaging, CA-I/72 strain, bovine embryo skeletal muscle, dry powder (AID 651885). Type of assay: functional, cell-based.
Assay [2] in a line: HeLa cell cytotoxicity, dose response, cytotoxicity control, 24 h, plate reader, powder samples, set 3 (AID 651864). Type of assay: functional, cell-based.
In assay [3] the target is Peroxisome proliferator-activated receptor gamma/Nuclear receptor coactivator 2 (Homo sapiens, UniProt P37231). Put plainly: TR-FRET dose response biochemical High Throughput Screening assay for agonists of the steroid receptor coactivator 2 (SRC-2) recruitment by the peroxisome proliferator-activated receptor gamma (PPAR gamma): non-selective agonists. [Related pubchem assays: 1297, 1032 ]. It is filed as functional. (In TR-FRET formats the signal depends on donor and acceptor labels being close together.)
Chain of Peroxisome proliferator-activated receptor gamma/Nuclear receptor coactivator 2 (P37231 whole entry): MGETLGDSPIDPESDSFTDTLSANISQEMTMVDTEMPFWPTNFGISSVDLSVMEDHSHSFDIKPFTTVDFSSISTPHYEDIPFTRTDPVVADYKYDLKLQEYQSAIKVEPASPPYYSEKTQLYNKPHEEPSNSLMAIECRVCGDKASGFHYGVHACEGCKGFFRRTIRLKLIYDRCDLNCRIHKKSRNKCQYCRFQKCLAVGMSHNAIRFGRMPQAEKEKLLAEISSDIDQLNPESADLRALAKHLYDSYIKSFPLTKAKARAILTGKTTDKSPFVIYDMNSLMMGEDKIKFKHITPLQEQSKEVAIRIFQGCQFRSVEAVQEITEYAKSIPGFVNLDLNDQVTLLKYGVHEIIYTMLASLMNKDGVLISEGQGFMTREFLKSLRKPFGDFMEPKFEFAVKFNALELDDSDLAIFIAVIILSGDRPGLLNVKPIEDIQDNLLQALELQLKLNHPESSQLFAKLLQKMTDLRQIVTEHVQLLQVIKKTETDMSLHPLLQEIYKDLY
Chain of Peroxisome proliferator-activated receptor gamma/Nuclear receptor coactivator 2 (Q15596 whole entry, further chain): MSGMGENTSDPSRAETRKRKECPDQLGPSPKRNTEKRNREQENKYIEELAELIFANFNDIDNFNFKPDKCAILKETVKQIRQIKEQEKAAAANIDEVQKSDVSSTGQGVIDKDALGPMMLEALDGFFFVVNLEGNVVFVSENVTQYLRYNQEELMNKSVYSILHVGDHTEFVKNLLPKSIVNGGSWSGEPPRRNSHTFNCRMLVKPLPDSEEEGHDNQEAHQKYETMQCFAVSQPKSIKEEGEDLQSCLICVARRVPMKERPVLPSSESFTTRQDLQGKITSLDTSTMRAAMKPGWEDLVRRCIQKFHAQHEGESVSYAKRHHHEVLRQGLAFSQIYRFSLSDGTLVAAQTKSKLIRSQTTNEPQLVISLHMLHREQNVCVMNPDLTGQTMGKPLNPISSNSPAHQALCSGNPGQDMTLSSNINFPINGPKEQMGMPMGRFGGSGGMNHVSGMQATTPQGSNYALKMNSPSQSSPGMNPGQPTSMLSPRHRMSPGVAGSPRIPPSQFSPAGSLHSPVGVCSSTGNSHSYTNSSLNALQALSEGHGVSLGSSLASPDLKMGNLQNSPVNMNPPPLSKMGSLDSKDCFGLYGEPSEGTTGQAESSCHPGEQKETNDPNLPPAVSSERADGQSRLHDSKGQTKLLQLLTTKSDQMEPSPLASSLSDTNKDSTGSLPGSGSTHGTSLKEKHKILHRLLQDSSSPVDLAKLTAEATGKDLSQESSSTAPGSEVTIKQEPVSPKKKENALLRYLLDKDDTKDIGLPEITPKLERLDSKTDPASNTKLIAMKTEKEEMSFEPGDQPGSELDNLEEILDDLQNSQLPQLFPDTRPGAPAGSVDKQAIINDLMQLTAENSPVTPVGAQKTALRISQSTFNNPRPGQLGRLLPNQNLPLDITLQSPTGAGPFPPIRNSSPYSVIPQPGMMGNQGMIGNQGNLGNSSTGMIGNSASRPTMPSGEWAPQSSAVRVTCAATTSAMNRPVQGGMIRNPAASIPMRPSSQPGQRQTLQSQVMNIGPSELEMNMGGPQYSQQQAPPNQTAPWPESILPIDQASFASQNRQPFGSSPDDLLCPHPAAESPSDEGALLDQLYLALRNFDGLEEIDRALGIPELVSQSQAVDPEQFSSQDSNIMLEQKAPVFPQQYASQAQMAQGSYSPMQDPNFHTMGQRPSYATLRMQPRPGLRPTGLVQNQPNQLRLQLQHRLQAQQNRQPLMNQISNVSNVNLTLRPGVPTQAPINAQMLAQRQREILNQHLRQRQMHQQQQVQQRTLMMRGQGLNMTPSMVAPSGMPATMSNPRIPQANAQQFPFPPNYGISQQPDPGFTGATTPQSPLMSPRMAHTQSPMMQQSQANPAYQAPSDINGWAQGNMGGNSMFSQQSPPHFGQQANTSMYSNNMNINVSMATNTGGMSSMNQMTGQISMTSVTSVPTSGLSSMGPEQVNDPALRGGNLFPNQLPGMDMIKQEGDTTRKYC

Assay [4] addresses Disintegrin and metalloproteinase domain-containing protein 17 (Homo sapiens, UniProt P78536). Put plainly: ADAM17 protease inhibitors, dose response, counter-screen for ADAM10 exosite inhibitor project, biochemical, quenched FRET substrate (AID 743253).
Assay [5] deals with Peroxisome proliferator-activated receptor gamma/Nuclear receptor coactivator 3 (Homo sapiens, UniProt P37231). Put plainly: TR-FRET dose response biochemical High Throughput Screening assay for agonists of the steroid receptor coactivator 3 (SRC-3) recruitment by the peroxisome proliferator-activated receptor gamma (PPAR gamma): non-selective agonists. [Related pubchem assays: 1301 (Confirmation screen.), 1048 (Primary screen.)]. Type of assay: functional.
Chain of Peroxisome proliferator-activated receptor gamma/Nuclear receptor coactivator 3 (P37231 whole entry): as the sequence (P37231 whole entry) above
Chain of Peroxisome proliferator-activated receptor gamma/Nuclear receptor coactivator 3 (Q9Y6Q9 whole entry, further chain): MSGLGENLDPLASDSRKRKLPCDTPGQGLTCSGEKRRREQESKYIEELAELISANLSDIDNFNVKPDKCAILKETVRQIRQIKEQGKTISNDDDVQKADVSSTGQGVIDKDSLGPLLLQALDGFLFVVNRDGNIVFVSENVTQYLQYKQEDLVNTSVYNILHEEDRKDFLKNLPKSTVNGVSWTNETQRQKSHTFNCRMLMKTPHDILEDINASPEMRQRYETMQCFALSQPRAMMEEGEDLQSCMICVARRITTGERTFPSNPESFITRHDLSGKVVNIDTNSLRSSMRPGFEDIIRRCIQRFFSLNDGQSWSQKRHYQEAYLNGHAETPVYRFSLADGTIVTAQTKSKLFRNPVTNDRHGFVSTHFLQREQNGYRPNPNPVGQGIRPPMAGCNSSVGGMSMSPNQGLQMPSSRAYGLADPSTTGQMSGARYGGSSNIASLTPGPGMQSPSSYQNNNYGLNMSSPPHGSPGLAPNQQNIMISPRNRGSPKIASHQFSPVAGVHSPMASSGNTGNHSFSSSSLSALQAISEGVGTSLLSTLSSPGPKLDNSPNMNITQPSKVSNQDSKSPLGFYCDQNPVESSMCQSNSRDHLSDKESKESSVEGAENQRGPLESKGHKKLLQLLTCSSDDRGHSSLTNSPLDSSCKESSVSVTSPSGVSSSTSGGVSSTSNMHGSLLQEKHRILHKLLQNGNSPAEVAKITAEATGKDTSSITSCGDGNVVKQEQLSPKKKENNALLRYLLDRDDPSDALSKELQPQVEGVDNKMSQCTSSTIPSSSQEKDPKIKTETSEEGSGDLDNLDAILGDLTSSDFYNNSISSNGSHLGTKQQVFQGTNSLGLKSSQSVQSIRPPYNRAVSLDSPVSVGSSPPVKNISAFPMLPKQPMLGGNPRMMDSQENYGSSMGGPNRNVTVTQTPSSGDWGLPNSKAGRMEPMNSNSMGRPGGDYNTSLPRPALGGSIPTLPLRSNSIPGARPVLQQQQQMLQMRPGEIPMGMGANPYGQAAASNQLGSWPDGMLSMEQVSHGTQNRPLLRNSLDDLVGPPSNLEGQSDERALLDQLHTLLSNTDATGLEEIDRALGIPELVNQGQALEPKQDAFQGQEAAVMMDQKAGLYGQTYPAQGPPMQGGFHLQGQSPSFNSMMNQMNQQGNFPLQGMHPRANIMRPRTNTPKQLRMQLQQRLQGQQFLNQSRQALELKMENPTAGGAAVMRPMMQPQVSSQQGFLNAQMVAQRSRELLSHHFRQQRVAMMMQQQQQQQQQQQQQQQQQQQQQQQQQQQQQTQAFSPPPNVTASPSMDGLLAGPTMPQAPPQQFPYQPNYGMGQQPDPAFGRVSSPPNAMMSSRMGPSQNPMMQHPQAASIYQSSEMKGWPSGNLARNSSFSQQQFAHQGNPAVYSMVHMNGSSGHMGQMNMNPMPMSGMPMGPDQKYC

A further assay concerns the target T1, Protein skinhead-1 (Caenorhabditis elegans, UniProt P34707).
T1 sequence (P34707 whole entry): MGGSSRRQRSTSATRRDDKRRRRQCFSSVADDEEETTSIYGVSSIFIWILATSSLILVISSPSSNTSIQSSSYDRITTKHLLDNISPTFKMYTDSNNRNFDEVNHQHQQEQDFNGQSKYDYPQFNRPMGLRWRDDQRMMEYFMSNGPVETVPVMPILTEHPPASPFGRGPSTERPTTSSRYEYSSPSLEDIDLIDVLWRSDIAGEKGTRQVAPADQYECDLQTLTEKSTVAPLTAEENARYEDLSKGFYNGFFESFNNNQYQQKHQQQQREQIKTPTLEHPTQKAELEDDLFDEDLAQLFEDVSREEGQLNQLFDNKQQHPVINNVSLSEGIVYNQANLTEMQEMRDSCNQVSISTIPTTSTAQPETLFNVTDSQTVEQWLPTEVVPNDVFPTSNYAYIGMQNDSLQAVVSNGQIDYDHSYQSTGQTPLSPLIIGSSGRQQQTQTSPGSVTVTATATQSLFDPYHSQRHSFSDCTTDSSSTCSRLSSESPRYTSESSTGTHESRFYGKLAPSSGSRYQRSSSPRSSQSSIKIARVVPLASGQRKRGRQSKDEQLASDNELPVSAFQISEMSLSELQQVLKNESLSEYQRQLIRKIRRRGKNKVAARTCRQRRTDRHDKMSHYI
It is filed as functional.

Assay [6] in a line: ADAM10 inhibitors, peptide cleavage, dose response, biochemical, QFRET (AID 743254).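 Further: ADAM10 enzyme with the DM2 quenched FRET peptide as substrate; EDANS fluorescence gain as the protease cuts the substrate; inhibitor potency against ADAM10 proteolytic activity.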
Assay [7] addresses Peroxisome proliferator-activated receptor gamma/Nuclear receptor coactivator 1 (Homo sapiens, UniProt P37231). As to the kind of experiment: TR-FRET dose response biochemical High Throughput Screening assay for agonists of the steroid receptor coactivator 1 (SRC-1) recruitment by the peroxisome proliferator-activated receptor gamma (PPAR gamma): non-selective agonists. [Related pubchem assays (depositor defined):AID1300, AID1808, AID504735, AID631]. Type of assay: protein assay.

The nature of assay [8]: A375 melanoma cell cytotoxicity, dose response, counter-screen for MITF inhibitor project, CellTiter-Glo luminescence, dry powder, set 2 (AID 624489).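 Further: actives are compounds lowering A375 viability meaning general cytotoxicity.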 The settings on record: A-375. Type of assay: functional, cell-based.
Assay [9] in a line: A375 melanoma cell viability loss, dose response, counter-screen for MITF inhibitor project, CellTiter-Glo luminescence, dry powder, set 4 (AID 624364).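 Further: A375 melanoma cells are MITF independent so this is a counter screen.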 It is filed as functional, cell-based. As to conditions: A-375. Background: The purpose of a counterscreen is to sort out artefacts and off-target activity.
The next assay concerns the target Paired box protein Pax-8 (Homo sapiens, UniProt Q06710). As to the kind of experiment: inhibitors of PAX8-driven TPO luciferase reporter, dose response, RMG-I cells, cherry-pick (AID 687027).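 Further: luciferase reporter driven by Pax8 target thyroperoxidase promoter measured by SteadyGlo luminescence.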 It is filed as functional, cell-based. For orientation: In a reporter assay the amount or activity of a reporter protein is the signal.
A short description of assay [10]: cytotoxicity in OVCAR8 ovarian cancer cells, dose response, PAX8 project, cell-based, plate reader, dry powder samples (AID 743197). Type of assay: functional. The settings on record: OVCAR-8.
In assay [11] the target is NAD-dependent protein deacylase sirtuin-5, mitochondrial (Homo sapiens, UniProt Q9NXA8). As to the kind of experiment: SIRT5 deacylase inhibitors, dose response, biochemical, fluorescence imaging, cherry-pick, set 6 (AID 720597).
Chain of NAD-dependent protein deacylase sirtuin-5, mitochondrial (Q9NXA8 whole entry): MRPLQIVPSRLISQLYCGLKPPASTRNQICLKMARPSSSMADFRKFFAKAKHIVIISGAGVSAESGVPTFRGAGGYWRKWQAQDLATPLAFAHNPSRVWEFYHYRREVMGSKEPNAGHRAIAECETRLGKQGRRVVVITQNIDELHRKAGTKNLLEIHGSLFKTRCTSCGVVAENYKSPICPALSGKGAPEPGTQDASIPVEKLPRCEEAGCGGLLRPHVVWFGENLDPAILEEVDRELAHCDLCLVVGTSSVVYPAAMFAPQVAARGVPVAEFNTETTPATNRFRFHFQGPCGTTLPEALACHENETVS
The target in assay [12] is T2, Matrix metalloproteinase-14 (Homo sapiens, UniProt P50281). As to the kind of experiment: Dose Response confirmation of uHTS hits for a small molecule inhibitors of MT1-MMP activation in a fluorescence assay set 1. It is filed as functional.
The target in assay [13] is T2, Matrix metalloproteinase-14. Put plainly: SAR confirmation of uHTS hits for a small molecule inhibitors of MT1-MMP activation in a fluorescence assay. Type of assay: functional.
Assay [14] can be described thus: HepG2 cell cytotoxicity, dose response, cytotoxicity control, cherry-picks, set 5 (AID 1053118). Type of assay: functional, cell-based.
A short description of assay [15]: HEK293 cell cytotoxicity, dose response, cytotoxicity control, cherry-picks, set 5 (AID 1053117). It is filed as functional, cell-based.
Assay [16] can be described thus: inhibitors of fibronectin matrix deposition, dose response, AH1F cells, Alexa488-FN fluorescence, cherry-picks (AID 1035475). Type of assay: functional, cell-based.
A short description of assay [17]: A549 cell cytotoxicity, dose response, cytotoxicity control, cherry-picks, 26 µM top dose (AID 1053119). Type of assay: functional, cell-based.
Assay [18] can be described thus: PAX2 cell-based inhibition, dose response, selectivity assay for PAX8 inhibitor project, plate reader, dry powder samples (AID 743048).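 Further: HEK293 cells carrying a WT1 promoter luciferase reporter driven by expressed Pax2; potency is for inhibition of Pax2 driven reporter signal.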 Type of assay: functional.
Assay [19] can be described thus: PAX5 activity inhibitors, dose response, selectivity assay for PAX8 inhibitor project, cell-based, plate reader, dry powder samples (AID 743047).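 Further: HEK293 cells carrying a Pax5 driven CD19 promoter luciferase reporter; potency of inhibitors that lower reporter luminescence.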 Type of assay: functional.
Assay [20] can be described thus: cytotoxicity in OV-90 ovarian cancer cells, dose response, PAX8 inhibitor project, cell-based, plate reader, dry powder, SA8 (AID 743149). Type of assay: functional.
The nature of assay [21]: cytotoxicity dependent on PAX8, dose response, cell-based, plate reader, dry powder (AID 743049). Type of assay: functional.
The nature of assay [22]: Late stage counterscreen for inhibitors of Trypanosoma brucei methionyl tRNA synthetase (MetRS): Luminescence-based cell-based high throughput dose response assay to identify compounds that are cytotoxic to Jurkat human T lymphocyte cells. It is filed as functional.

For nine compounds, IC50, AC50 and EC50 results are on record in ChEMBL document CHEMBL1201862, “PubChem BioAssay data set” (2004).

The source made the active and inactive calls.

Chain of Paired box protein Pax-8 (Q06710 whole entry): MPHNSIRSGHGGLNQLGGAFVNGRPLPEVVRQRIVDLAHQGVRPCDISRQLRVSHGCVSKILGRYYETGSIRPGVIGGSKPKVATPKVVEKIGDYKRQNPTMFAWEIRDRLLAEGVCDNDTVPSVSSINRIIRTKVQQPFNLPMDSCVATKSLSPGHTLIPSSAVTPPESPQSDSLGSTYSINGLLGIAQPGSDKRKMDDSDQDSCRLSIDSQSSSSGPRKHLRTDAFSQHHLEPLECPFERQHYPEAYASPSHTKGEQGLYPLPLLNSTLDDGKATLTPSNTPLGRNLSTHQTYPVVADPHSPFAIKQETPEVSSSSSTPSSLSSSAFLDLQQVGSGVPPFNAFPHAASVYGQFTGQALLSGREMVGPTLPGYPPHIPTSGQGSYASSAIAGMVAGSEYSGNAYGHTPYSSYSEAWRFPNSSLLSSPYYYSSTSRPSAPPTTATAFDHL

For the compound `CC(C)N1C[C@H](C)[C@@H](CN(C)C(=O)OC(C)(C)C)Oc2c(NC(=O)c3ccccc3)cccc2C1=O`, the IC50 in [1] was > 20 µM (inactive).
As for `CCn1nccc1NCc1ccc(N2CCCC2)cc1`, in assay [2], the AC50 is > 160 µM (inactive).
For `COc1ccc2nc(SCC(=O)Nc3ccc(S(=O)(=O)N4CCCC4)cc3)c(C#N)cc2c1`, the EC50 in [3] was 7.11 µM (active); in assay [5] it was > 26.5 µM (not active); in assay [7], 7.32 µM (active). For the same compound, the IC50 in [4] is > 69.5 µM (inactive); on Protein skinhead-1 it was > 100 µM (inactive); in assay [6], > 69.5 µM (inactive).
For the compound `C=CCNC1=C(N(C)C(C)=O)C(=O)c2ccccc2C1=O`, the AC50 in [8] is 2.59 µM (active); in assay [9], 8.92 µM (active).
With `C[C@@H]1CCCCO[C@H](CN(C)Cc2ccc(C(F)(F)F)cc2)[C@@H](C)CN([C@@H](C)CO)C(=O)c2cc(NS(=O)(=O)c3ccccc3)ccc2O1`, the figures for the AC50 (on Paired box protein Pax-8; in assay [10]; in [11]) were 4.17 µM (active), 67.5 µM (active) and 23.5 µM (active), respectively.
Turning to `CCn1c(=O)c(=O)[nH]c2cc(C(=O)NC3CCCc4ccccc43)ccc21` (stereo not given), the IC50 in assay [12] is 26.7 µM (inactive); in assay [13], 29.1 µM (inactive).
Consider `CO[C@@H]1CN(C)C(=O)c2ccc(NC(=O)Nc3ccc(Cl)c(Cl)c3)cc2OC[C@@H](C)NC[C@@H]1C`, for which the AC50 in assay [14] was 24.2 µM (active); in [15], 20.4 µM (active); in assay [16], 36.8 µM (active); in assay [17], 13.1 µM (active).
For the compound `C[C@H]1CN([C@@H](C)CO)C(=O)Cc2cc(NC(=O)NC3CCCCC3)ccc2O[C@@H]1CN(C)Cc1ccc(-c2ccccc2)cc1`, the AC50 on Paired box protein Pax-8 was 14.5 µM (active); in assay [18], 19.3 µM (active); in assay [19], 20.8 µM (active); in assay [20], > 70 µM (inactive); in assay [21], > 70 µM (inactive).
In the case of `O=C(CCC(=O)Nc1cccc([N+](=O)[O-])c1)NN=Cc1cccs1`, the IC50 in assay [22] is > 83.3 µM (inactive).

The term IC50 denotes the concentration at which inhibition is half-maximal. A word on the AC50: it is the concentration giving half of the maximal activity seen. What is called EC50 is the concentration that produces a half-maximal response.
